# According to patent publication US6936600B2, “Sorbitol dehrydrogenase inhibitors” (Pfizer Inc, priority 1999, dated 2005):
row,melting point,Structure (SMILES)
1,80 to 82 °C,"C[C@@H]1CN(C(=O)/C=C/c2cc3ccccc3o2)C[C@H](C)N1c1ccnc([C@@H](C)O)n1 [Example 130, (E)-3-Benzofuran-2-yl-1-{4-[2-(1R-hydroxy-ethyl)-pyrimidin-4-yl]-2R,6S-dimethyl-piperazin-1-yl}-propenone]"
2,133 to 134 °C,C[C@@H]1CN(c2ncnc(-c3ccccc3)n2)C[C@H](C)N1c1ccnc([C@@H](C)O)n1 [Example 215]
3,158 to 161 °C,"C[C@@H](O)c1nccc(N2CCN(c3nc4ncccc4o3)[C@@H](C)C2)n1 [Example 20, 1R-[4-(3S-Methyl-4-oxazolo[4,5-b]pyridin-2-yl-piperazin-1-yl)-pyrimidin-2-yl]-ethanol]"
